Data on one compound can be found in PMC8944987, “In Vivo Efficacy of SQ109 against Leishmania donovani, Trypanosoma spp. and Toxoplasma gondii and In Vitro Activity of SQ109 Metabolites” (Biomedicines, 2022).

Like-named read-outs stand apart in the source and are kept apart here.

The subject of test [1] is L. donovani promastigotes. The arrangement: method as in PMID 31897791. Particulars: cited from earlier work.
For another test, the system named is T. cruzi epimastigotes. The arrangement: method as in PMID 25583723. Particulars: cited from earlier work.
In test [2] the test system is L. donovani promastigotes. Nature of the test: L. donovani promastigotes assay (resazurin). The class given is cell-based. Particulars: Leishmania donovani.
In test [3] the test system is intracellular L. donovani amastigotes in THP-1. Nature of the test: L. donovani intracellular amastigotes assay in THP-1 (image based). The class given is cell-based.
Test [4] relates to T. gondii tachyzoites of the RH strain. Nature of the test: T. gondii in vivo mouse model. The arrangement: species or system Webster mice. Particulars: for survival of T. gondii infected mice: 20 and 50 mg/kg daily for 10 days.
Test [5] has as its system L. mexicana intracellular amastigotes. On the set-up: method as in PMID 27458218. Particulars: cited from earlier work.

As to `CC(C)=CCC/C(C)=C/CNCCNC1C2CC3CC(C2)CC1C3` (stereo not drawn) [SQ109, N-adamantan-2-yl-N’-((E)-3,7-dimethyl-octa-2,6-dienyl)-ethane-1,2-diamine], the IC50 in test [1] is 0.63 µM; in the test on T. cruzi epimastigotes, 4.6 µM; in test [2] (72 h, Figure 2E, read-out: IC50, L. donovani promastigote growth), 0.175 µM; in test [3] (Leishmania donovani, 72 h, differentiated THP-1 host cells, 3 days of compound incubation, Figure 2F), 1.38 µM; in test [5], about 0.011 µM. Also, the EC50 in test [2] (promastigotes, read-out: L. donovani EC50 (PRO)) stood at 0.28 µM. The “anti-amastigote activity in the current study less than the reported one” value in test [3] (L. donovani, THP-1 (this study) versus J774 (ref 10)) was ~ 200 fold. The “survival / protection of T. gondii infected mice against the initial infection” value in test [4] (hypervirulent RH strain, 50 mg/kg i.p.) is reported as “Eighty percent”. The “survival of T. gondii infected mice” value in test [4] (i.p., Figure 6B) is given as 50–80%; in test [4] (oral gavage, 40 days post-infection, Figure 6C), 30–40%. Moreover, the “animals surviving the re-challenge at day 42” value in test [4] (treated with 20 mg/kg/day) is recorded as 4 out of 6. The “outcome of the re-challenge at 42 days, in words” value in test [4] (treated with 50 mg/kg/day) is given as “all died with the challenge”.
